In patent US20260102413A1, “TREATING PAIN ASSOCIATED WITH CENTRAL SENSITIZATION” (Medicon Pharmaceuticals, Inc., priority 2022, published 2026):

Key:
[1] = system: mice with paclitaxel-induced neuropathic pain (CIPN); assay: von Frey paw withdrawal threshold (mechanical allodynia), paclitaxel-induced CIPN / central sensitization, treatment of established pain, topical test compounds; assay type: in vivo, mouse; settings: paclitaxel mice; PS hydrogel 5%, sulindac 0.7% topical hind paws 3x/day from day 0; lidocaine 5% cream once 30 min before; pregabalin 10 mg/kg oral once 1 h before; day 14
Method: Paw withdrawn, licking or shaking were considered positive responses.
(§1) The first doses were administered 5 days after the last administration of paclitaxel (i.e., at day 0).
The PWT test was performed prior to the administration of paclitaxel (day −8) to establish the threshold in mice without neuropathic pain associated with CIPN (the value shown is an average of the PWT in all groups at day −8).
Pain associated with CIPN was established in line with the experiments disclosed herein. Mice were treated with naproxen 2.4% (equimolar to PN 5%), aspirin 1.7% (equimolar to PA2 5%); or ibuprofen 2.5% (equimolar to PI 5%) or vehicle applied topically to both hind paws 3×/day for 14 days.
CIPN was induced in mice with chemotherapeutic agents using established protocols (Carozzi et al, 2010; Currie et al, 2019; Eldridge et al, 2020).
The first doses were administered 1 day after the last administration of paclitaxel (i.e., at day 0).
as §1
The PWT test was performed on day 21, at the end of the experiment, but was also additionally determined on day 14 for LXIX.

[2] = system: mice with paclitaxel-induced CIPN; assay: thermal allodynia (paw withdrawal latency, radiant heat), paclitaxel CIPN model; assay type: in vivo, mouse; settings: oral PS 50 mg/kg, sulindac 33 mg/kg 3x/day, day 16 of treatment
Method: Group 3: paclitaxel pluse sulindac (n=8)
Thermal allodynia was also determined for the mice study groups below (with 8 mice per group): • 1. Group 1: naïve mice (i.e. no paclitaxel) • 2. Group 2: paclitaxel only • 3. Group 3: paclitaxel plus vehicle • 4. Group 4: paclitaxel plus NO-sulindace • 5. Group 5: paclitaxel plus thiol-sulindac

[3] = system: mice with paclitaxel-induced CIPN; assay: von Frey PWT, paclitaxel CIPN model, orally administered compounds; assay type: in vivo, mouse; settings: paclitaxel 8 mg/kg x4; oral gavage 3x/day 7 days: PS 50, sulindac 33, PN 65, naproxen 35 mg/kg; day 7
Description: CIPN was induced in mice with chemotherapeutic agents using established protocols (Carozzi et al, 2010; Currie et al, 2019; Eldridge et al, 2020). […] This dosing regimen of paclitaxel produces pain associated with CIPN with time courses that are similar to those of pain after paclitaxel administration in cancer patients.
Group 1: naïve mice (i.e. no paclitaxel, n=8) • 2. Group 2: paclitaxel only (n=8) • 3. Group 3: paclitaxel plus vehicle (n=8) • 4. […] Group 5: paclitaxel pluse sulindac (n=8)
The PWT test was performed on day 7.
Phospho-naproxen (PN) and naproxen were given by oral gavage, three times a day for 7 days. Their doses were as follows: PN, 65 mg/kg; naproxen, 35 mg/kg (equimolar to PN). The response of mechanical allodynia to phospho-naproxen (PN) and naproxen was tested on day 7.
(§2) This dosing regimen of paclitaxel produces pain associated with CIPN with time courses that are similar to those of pain after paclitaxel administration in cancer patients.
Phospho-ibuprofen (PI) (Formula III), phospho-glycerol-ibuprofen (PGI) (Formula LXXI), phospho-ibuprofen-amide (PIA) (Formula XI), and ibuprofen were given by oral gavage, three times a day for 6 days. Their doses were as follows: ibuprofen, 40 mg/kg; PI, 80 mg/kg; PIA, 80 mg/kg; all three were equimolar.
The response of mechanical allodynia to these compounds was tested on day 6, using the PWT test.
as §2
NO-sulindac (Formula XLIV), HS-sulindac (Formula XXXIV), platinum-sulindac (Formula LXVII), and NOSH-1 (Formula LIX) were given by oral gavage, three times a day throughout the study period. Their doses were all 100 mg/kg.
The response of mechanical allodynia to these compounds was tested on the days set out in the table below, via the PWT test.
LXIX was given by oral gavage, once a day for 14 days at a dose of 100 mg/kg.
The response of mechanical allodynia to these compounds was tested on day 14, via the PWT test.

STZ-diabetic rats = assay type: in vivo, rat; settings: PS 8% hydrogel, sulindac 0.7% hydrogel 3x/day day −2 to 28; lidocaine cream 5% once 30 min before; STZ day 0; day 28
Description: The animal model corresponds to that used for Example 4, but using a prevention protocol. As in Example 4, the outcome measure, determining the effect of the treatment on the prevention of mechanical allodynia, was the PWT test, using von Frey filaments. The measurements were taken at day −3, before treatment or induction of neuropathic pain associated with DPN, and again at the end of the study period (day 28).
The rats were randomised into treatment groups as follows, all having an average body weight of about 225 g. • 1. Group 1: naïve rats (n=6) • 2. Group 2: STZ only (n=8) • 3. Group 3: STZ plus vehicle (n=8) • 4. […] Group 5: STZ plus sulindac 0.7% (n=8) • 6. Group 6: STZ plus lidocaine cream 5% (n=8)
Each treatment group was subjected to a PWT assessment at day −3 in order to determine the baseline of mechanical allodynia.
For those rats in the lidocaine treatment group, lidocaine cream was applied only once to both hind paws of the rats 30 min before the final PWT measurement on day 28. On day 0, neuropathic pain associated with DPN was induced with the administration of STZ, and the blood glucose was checked on day 3.

[4] = system: mice with chronic constriction injury of the left sciatic nerve (PTPN); assay: von Frey PWT, chronic constriction injury (CCI) model of PTPN, topical compounds; assay type: in vivo, mouse; settings: PS 5% gel, sulindac 0.7% gel on left paw 3x/day 14 days; pregabalin (10 mg/ml) oral gavage once 1 h before; day 14
Method: The PWT test was performed following ligation, but prior to treatment to determine baseline values. The PWT was then further measured on day 14.

[5] = system: mice with NTG-induced migraine; assay: von Frey PWT, NTG-induced migraine model, oral or intraperitoneal compounds; assay type: in vivo, mouse; settings: oral 30 min after NTG: PS 50, sulindac 33, PN 65, naproxen 35 mg/kg; 30 min after administration
Method: Phosphonaproxen (Formula VIII), and its parent compound, naproxen, were administered orally to each mouse group. All compounds were administered at equimolar doses. In particular, phosponaproxen was administered at 65 mg/kg, and naproxen was administered at 35 mg/kg, 30 minutes after NTG administration. The response of mechanical allodynia was tested 30 minutes after administration.

[6] = drug levels in proximal and distal half of the sciatic nerve after topical PS; assay type: in vivo, mouse; settings: paclitaxel-PN mice, PS 8% ointment 3x/d 2 wks; 30 min after last dose
Method: In a separate experiment we studied 8 mice with paclitaxel-induced PN treated with PS 8% ointment 3×/d for 2 wks. Mice were euthanized as above 30 minutes after the last dose of PS. From these mice we harvested both sciatic nerves dividing each into proximal and distal halves, and combined the corresponding halves of every two animals for assay of drug levels.

## CC1=C(CC(=O)O)c2cc(F)ccc2/C1=C\c1ccc([S+](C)[O-])cc1 (stereo not shown) [sulindac, reference compound]
[1]
  PWT, g Mean ± SEM: 0.62 ± 0.05 g
[2]
  PWL, sec Mean ± SEM: 7.87 ± 0.7 s
[3]
  PWT, g Mean ± SEM: 0.56 ± 0.05 g
STZ-diabetic rats
  von Frey, gm mean ± SEM: 27.7 ± 1.4 gm
[4]
  PWT, g Mean ± SEM: 0.63 ± 0.07 g
[5]
  PWT, g Mean ± SEM: 0.60 ± 0.04 g
[6]
  Fold difference distal vs proximal: 8.5
